We go through six molecules from ChEMBL document CHEMBL1134998, “A novel synthesis of 7-aryl-8-fluoro-pyrrolo[1,2-a]pyrimid-4-ones as potent, stable GnRH receptor antagonists” (Bioorg Med Chem Lett, 2002).

By Ki is commonly meant a dissociation constant, usually derived from enzyme kinetics or from competition with a known ligand. Read a high Ki as a looser hold on the target.

The target of the assay is T1, Gonadotropin-releasing hormone receptor (Homo sapiens, UniProt P30968).
T1 sequence (P30968 whole entry): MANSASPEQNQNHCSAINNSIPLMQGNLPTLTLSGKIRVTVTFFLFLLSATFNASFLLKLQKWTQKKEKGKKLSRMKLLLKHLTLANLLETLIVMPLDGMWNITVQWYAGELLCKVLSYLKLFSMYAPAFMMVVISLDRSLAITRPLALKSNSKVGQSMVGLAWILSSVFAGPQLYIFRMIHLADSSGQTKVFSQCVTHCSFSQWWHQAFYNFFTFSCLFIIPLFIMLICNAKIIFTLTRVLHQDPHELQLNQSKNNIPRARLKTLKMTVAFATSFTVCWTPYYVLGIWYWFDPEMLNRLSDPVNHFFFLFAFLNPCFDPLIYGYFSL
Kind of assay: Binding affinity towards human Gonadotropin-releasing hormone receptor.
The molecule `CCOC(=O)c1cn(Cc2ccccc2F)c2c(F)c(-c3cccc(OC)c3)c(CN(C)CCc3ccccn3)n2c1=O` gave an inhibition constant Ki of 0.2 µM.
The molecule `CCOC(=O)c1cn(Cc2ccccc2F)c2c(F)c(-c3cccc(OC)c3)c(CN(C)Cc3ccccc3)n2c1=O` came in with a Ki of 2.6 µM.
Molecule `CCOC(=O)c1cn(Cc2ccccc2F)c2c(F)c(-c3ccc(OCC(C)C)cc3)c(CN(C)CCc3ccccn3)n2c1=O` gave a Ki of 0.009 µM.
In turn, `CCOC(=O)c1cn(Cc2ccccc2F)c2c(F)c(-c3ccc(OCC(C)C)cc3)c(CN(C)Cc3ccco3)n2c1=O` gave a Ki of 0.092 µM. Against the preceding molecule, the Ki is about 10-fold higher.
`CCOC(=O)c1cn(Cc2ccccc2F)c2c(F)c(-c3ccc(OCC(C)C)cc3)c(CN(C)Cc3ccccc3)n2c1=O` gave an inhibition constant (Ki) of 0.042 µM.
The molecule `CCOC(=O)c1cn(Cc2ccccc2F)c2c(F)c(-c3cccc(OC)c3)c(CN(C)Cc3ccco3)n2c1=O` came in with an inhibition constant Ki of 24 µM.
